According to US5594024A, “Centrally actig substituted phenylazacycloalkanes” (priority 1995, dated 1997):
Where two headings read alike, the source gives them in different places.

Legend:
5-HT receptor [1] = assay: 5-HTP accumulation (5-HT synthesis rate) in non-pretreated rats after NSD 1015; assay type: in vivo, rat (male Sprague-Dawley)
Procedure: observations are commented to the right. After the session the rats were
accumulation in the NErich cortical regions and 5HTP in the limbic
(§1) Injection volumes were 5 mL/kg.

D2 receptors = biological target: T1, D2 receptors (Rattus norvegicus, UniProt P61169); assay: D2 antagonist binding ([3H]-spiperone), rat striatum
T1 construct: Preparation of rat striatal membranes for (3H)-spiperone; from tissue; host or cells: rat striatum (striatal membranes)
Procedure: D2 antagonist binding. Preparation of rat striatal membranes for (3H)-spiperone (specific activity 21-24 Ci/mmol) binding was carried out in a similar manner as described for D1-binding, Hyttel et al., J. Neural. Transm., 68, 171 (1987).
IC50 values were calculated by semi-log plot and linear regression analysis.

habituated rats = assay: Locomotor activity and behavior in habituated rats; assay type: in vivo, rat (male Sprague-Dawley); conditions: habituated rats
Procedure: (§2) Footnotes Table 3. The rats were habituated to the motility meters 60 min
prior to the activity session.
as §1
Locomotor activity was measured in rats which were habituated 60 minutes to the activity meters before drug injection. The activity was measured for the subsequent 60 minutes and expressed as % of controls (means ±SEM, n=4).

DA receptor [2] = assay: DOPA accumulation (DA synthesis rate) in non-pretreated rats after NSD 1015
Procedure: injected with NSD 1015 (100 mg/kg, i.p.) and then killed 30 min later.
In-vivo determination of rat brain monoamine metabolites and tyrosine and tryptophan hydroxylation (biochemically monitored DA and 5-HT receptor agonist or antagonist activity).
The compounds under evaluation were tested biochemically for central DA and 5-HT receptor (pre- and/or postsynaptic) stimulating and/or blocking activity. The concept of this biochemical screening method is that a DA or 5-HT receptor agonist will stimulate the receptor and through regulatory negative feed-back systems induce a decline in tyrosine or tryptophan hydroxylating activity, respectively, and a subsequent reduction in the synthesis rate of DA and 5-HT in the presynaptic neuron. […] The biochemical experiments and the determinations of Dopa and 5-HTP by means of HPLC with electrochemical detection were performed. The antagonistic effects were seen as increases in the synthesis rate (n=4), as a result of the positive feed-back upregulation of synthesis. The effects on Dopa and 5-HTP accumulation are expressed as % of controls, which were: DOPA limbic system=447±23 ng/g and DOPA striatum=1045±47ng/g, 5-HTP limbic region 241±2 ng/g (Table 2).
Animals used in the biochemical and motor activity experiments were male rats of the Sprague-Dawley strain (ALAB, Sollentuna, Sweden), weighing 200-300 g. The rats were kept 5 per cage with free access to water and food (except for the starved animals for the experiments with per oral administration, who were only allowed water the last 18 hours before testing), at least one week from arrival until used in the experiments.
All substances to be tested were dissolved in saline immediately before use, occasionally with the addition of a few drops of glacial acetic acid and/or moderate heating in order to obtain complete dissolution. Injection volumes were 5 mL/kg.
Analysis of variance (ANOVA) followed by Fischer's test was used for the statistical calculations. P values less than 0.05 were regarded statistically significant.
DOPA accumulation (DA synthesis rate) in non-pretreated rats (Table 2). After the locomotor activity session (see Table 2, above) the rats were injected with the decarboxylase inhibitor NSD 1015 (100 mg/kg, sc) and killed 30 minutes later. The DOPA accumulation in the DA -rich limbic and striatal and the NE-rich cortical (mainly hemispheres) brain areas were expressed as % of saline treated controls.
DOPA accumulation, time course after s.c. and p.o. administration (Table 2). […] NSD 1015 (100 mg/kg, sc) was injected 30 minutes before death. The data are expressed as % of saline treated controls.

[3] = test system: central dopamine receptors; assay: Locomotor activity and DA synthesis in reserpinized rats; assay type: in vivo, rat
5-HT1A = biological target: T2, 5-HT1A (Rattus norvegicus, UniProt P19327); assay: 5-HT1A radioligand binding ([3H]-8-OH-DPAT); design: species or system rat (male Sprague-Dawley); conditions: [3H]-8-OH-DPAT, rat cortex; read-out: in vitro binding IC50, 5HT1A
T2 construct: the whole brain with the exception of the brainstem and cerebellum was rapidly removed; from tissue
T2 sequence (P19327 1-422): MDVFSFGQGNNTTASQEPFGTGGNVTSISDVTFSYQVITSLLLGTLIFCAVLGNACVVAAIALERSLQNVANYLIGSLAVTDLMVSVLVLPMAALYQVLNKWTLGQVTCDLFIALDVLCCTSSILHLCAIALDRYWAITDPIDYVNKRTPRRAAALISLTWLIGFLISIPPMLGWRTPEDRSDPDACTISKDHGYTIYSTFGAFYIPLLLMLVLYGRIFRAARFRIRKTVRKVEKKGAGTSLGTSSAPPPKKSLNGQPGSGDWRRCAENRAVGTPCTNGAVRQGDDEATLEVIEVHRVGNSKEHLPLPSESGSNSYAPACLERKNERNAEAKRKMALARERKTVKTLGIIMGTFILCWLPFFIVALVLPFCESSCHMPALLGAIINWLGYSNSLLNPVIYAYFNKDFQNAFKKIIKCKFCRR
Procedure: ^b Serotonin 5HT1A ([^3 H]-8OH-DPAT, agonist) rat cortex.
5-HT1A radioligand binding. Male Sprague-Dawley rats (160-225 g) were killed by decapitation and the whole brain with the exception of the brainstem and cerebellum was rapidly removed, weighed and chilled in ice-cold 0.9% NaCl. Each brain was homogenized (Ultra-Turrax, 20 s) in 10 mL ice-cold 50 mM Tris buffer (pH 8.0 at 25° C.) containing 120 mM NaCl, 4 mM CaCl2 and 4 mM MgCl2 and centrifuged at 20,000 g's at 4° C. for 10 minutes. Pellets were resuspended in 10 mL fresh buffer and preincubated for 10 minutes in a 37° C. waterbath and then recentrifuged. Final pellets were homogenized in 100 volumes (w/v) of Tris buffer (as described above) containing 10 μM pargyline. The incubation tubes were kept on ice in triplicates and received 100 μL drug solution in water (or water for total binding) and 1000 μL membrane suspension (corresponds to 10 mg original tissue). The binding experiment was initiated by addition of 100 μL of (3H)-8-OH-DPAT (specific activity 143-158 Ci/mmol) in ascorbic acid (the final incubation concentration was 1 nM (3H)-8-OH-DPAT in 0.1% ascorbic acid). After incubation for 15 minutes at 37° C. the reaction was terminated by separation of the free radioligand from bound by rapid vacuum filtration using a cell harvester equipment (O. M. Teknik, Denmark). The tubes were rinsed with 4 mL and the filters (Whatman GF/F 25 mm) were washed twice with 4 mL ice-cold 0.9% NaCl.
The radioactivity of the filters was measured in a liquid scintillation counter (efficiency 41%) in 5 mL Picofluor®. Specific binding (70-75% of total binding) was defined as the radioactivity displaced by 10 μM 5-HT. IC50 values were calculated by semi-log plot and linear regression analysis.

DA receptor [4] = assay: DA metabolism (DOPAC, HVA levels) in habituated rats; assay type: in vivo, rat (male Sprague-Dawley); conditions: for response vs control in vivo at 100 µmol/kg: Rattus norvegicus, 1 h
Procedure: as §2
The rats were immediately killed after the activity session, striata
(§3) and limbic levels of DOPAC and 5HIAA were measured by means of HPLCEC. *p
(§4) In the experiments with habituated rats no NSD was administered and the animals were killed one hour after drug administration. […] The levels were expressed as % of controls (DOPAC and 5-HIAA see Table 3). The in vivo brain microdialysis experiments were performed in conscious rats as described by Waters et al., Eur. J. Pharm., 187, 425-34 (1990).
as §1
After the activity session the rats were killed and the brain levels of HVA and DOPAC were measured (data are expressed as means ±SEM).

non-pretreated rats = assay: Locomotor activity and gross behavior in non-habituated (non-pretreated) rats; conditions: non-pretreated rats; for Motor Act.: 30 min
5-HT receptor [5] = assay: 5-HT metabolism (5-HIAA levels) in habituated rats; assay type: in vivo, rat (male Sprague-Dawley); conditions: 100 μmol/kg sc
Procedure: as §2
SEM. The rats were immediately killed after the activity session, striata
as §3, §4
Injection volumes were 5 mL/kg. […]

[6] = test system: S-(-)-34-induced hypermotility; assay: Blockade of S-(-)-34-induced hypermotility in habituated rats; assay type: in vivo, rat; conditions: for effect on S-(-)-34-induced hypermotility: habituated rats, S-(-)-34 50 μmol/kg s.c.
Procedure: It was shown that S-(-)-34-induced hypermotility in habituated rats is blocked by haloperidol, raclopride, reserpine and alpha-methyl-para tyrosine. […] The test compounds were administered consecutively at the same time.
The catecholamine synthesis inhibitor alpha-methyl-para-tyrosine (Sigma, alpha-MT;100 mg/kg, i.p.) was administered 60 minutes before […] ([…], s.c.).

dopamine autoreceptors = assay: GBL-model (DA synthesis rate; presynaptic dopamine autoreceptors); assay type: in vivo, rat; conditions: apomorphine […], sc; GBL 750 mg/kg, i.p.
Excerpt: The effects on DOPA accumulation in the GBL-model is considered to reflect an event at the presynaptic dopamine autoreceptors (for further details, see Svensson et al., Nunyn-Schmiedeberg's Arch. Pharm., 334, 234(1986)).

[7] = test system: d-amphetamine-induced hyperactivity; assay: d-Amphetamine-induced hyperactivity in habituated rats; assay type: in vivo, rat; conditions: d-amphetamine 5.0 mg/kg, sc

T1 sequence (P61169 whole entry): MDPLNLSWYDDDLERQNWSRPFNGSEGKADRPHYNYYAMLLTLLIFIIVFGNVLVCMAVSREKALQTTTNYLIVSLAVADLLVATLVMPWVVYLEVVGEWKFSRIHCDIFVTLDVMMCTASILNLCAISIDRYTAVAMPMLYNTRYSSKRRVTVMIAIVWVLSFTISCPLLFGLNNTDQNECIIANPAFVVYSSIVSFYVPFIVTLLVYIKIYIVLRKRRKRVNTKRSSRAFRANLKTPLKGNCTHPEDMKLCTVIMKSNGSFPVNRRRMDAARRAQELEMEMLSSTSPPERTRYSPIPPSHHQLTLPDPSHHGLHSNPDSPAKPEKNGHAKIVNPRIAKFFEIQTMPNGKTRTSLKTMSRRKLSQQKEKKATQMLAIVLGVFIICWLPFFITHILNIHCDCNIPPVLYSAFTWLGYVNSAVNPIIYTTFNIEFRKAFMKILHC

SMILES: CCCN1CCC[C@H](c2cccc(C#N)c2)C1 [R-(+)-34, R-(+)-3-(3-Cyanophenyl-N-n-propyl)piperidine]
- 5-HTP acc Limbic Region (5-HT receptor [1]; 50 po): 99 ± 3 % of saline controls
- 5-HTP acc Limbic Region (5-HT receptor [1]; 50 sc): 82 ± 1 % of saline controls
- affinity for D2 receptors (in words) (D2 receptors; (3H)-Spiperone binding): essentially no affinity for D2 receptors
- IC50 (D2 receptors; read-out: in vitro binding IC50, D2 -spip; [3H]-spiperone, rat striatum): 100 µM
- Behavioral observations (habituated rats; 100 μmol/kg sc): Activation
- locomotor activity in habituated rats (in words) (habituated rats): stimulates the locomotor activity in habituated rats
- DOPA acc Cortex (DA receptor [2]; 50 po): 103 ± 9 % of saline controls
- DOPA acc Stratium (DA receptor [2]; 50 po): 172 ± 8 % of saline controls
- DOPA acc Cortex (DA receptor [2]; 50 sc): 145 ± 11 % of saline controls
- DOPA acc Stratium (DA receptor [2]; 50 sc): 281 ± 11 % of saline controls
- motor activity in reserpinized rats ([3]; 50 μmol/kg, sc, reserpine 5 mg/kg, 18 h before): 6±2 counts/30 min
- DA synthesis rate / DOPA accumulation in reserpinized rats (in words) ([3]; reserpinized rats): failed to produce locomotor stimulation or to affect the DA synthesis rate in reserpinized rats
- locomotor stimulation in reserpinized rats (in words) ([3]; reserpinized rats): failed to activate the reserpinized rats
- locomotor stimulation in reserpinized rats (in words) ([3]; reserpinized rats, listed as (R)-34): failed to produce locomotor stimulation
- IC50 (5-HT1A): 14 µM
- response vs control in vivo at 100 µmol/kg (DA receptor [4]; sc, read-out: DOPAC limbic): 120 ± 5%
- response vs control in vivo at 100 µmol/kg (DA receptor [4]; sc, read-out: DOPAC striatum): 117 ± 3%
- limbic DOPAC levels (in words) (DA receptor [4]; rat, in vivo): only weakly elevated limbic DOPAC
- Gross Behavioral Observations (non-pretreated rats; 50 po): No change
- Motor Act. (non-pretreated rats; 50 po): 133 ± 14 % of saline controls
- Gross Behavioral Observations (non-pretreated rats; 50 sc): stimulat.

SMILES: CCCCN1CCC[C@@H](c2cccc(OS(=O)(=O)C(F)(F)F)c2)C1 [S-(-)-16, S-(-)-3-((3-(Trifluoromethyl)sulfonyl)oxyphenyl-N-n-butyl)-piperidine]
- 5-HTP acc Limbic Region (5-HT receptor [1]; 100 sc): 82 ± 5 % of saline controls
- IC50 (D2 receptors; [3H]-spiperone, rat striatum; read-out: in vitro binding IC50, D2 -spip): 1.3 µM
- Behavioral observations (habituated rats; 100 μmol/kg sc): Activation
- response vs control in vivo at 100 µmol/kg (habituated rats; Rattus norvegicus, 1 h, 100 μmol/kg sc, 60 min, read-out: Motor Activity): 345 ± 39%
- DOPA acc Cortex (DA receptor [2]; 100 sc): 89 ± 9 % of saline controls
- DOPA acc Stratium (DA receptor [2]; 100 sc): 234 ± 10 % of saline controls
- IC50 (5-HT1A): 1.3 µM
- 5-HIAA limbic (5-HT receptor [5]): 109 ± 4 % of saline treated controls
- response vs control in vivo at 100 µmol/kg (DA receptor [4]; 100 μmol/kg sc, habituated rats, read-out: DOPAC limbic): 186 ± 2%
- response vs control in vivo at 100 µmol/kg (DA receptor [4]; 100 μmol/kg sc, habituated rats, read-out: DOPAC striatum): 192 ± 4%
- Gross Behavioral Observations (non-pretreated rats; 100 sc): No change
- Motor Act. (non-pretreated rats; 100 sc): 116 ± 21 % of saline controls

SMILES: CC(N)(Cc1ccc(O)cc1)C(=O)O (stereo not drawn) [alpha-MT, alpha-methyl-para-tyrosine]
- motor activity, compound alone ([6]; 100 mg/kg, i.p.): did not affect the motor activity
- effect on locomotor stimulation produced by S-(-)-34 ([6]; alpha-MT 100 mg/kg, i.p., 60 minutes before): partially inhibited the locomotor stimulation
- effect on S-(-)-34-induced hypermotility [6]: blocked

SMILES: CN1CCc2cccc3c2[C@H]1Cc1ccc(O)c(O)c1-3 [apomorphine, reference compound]
- effect on GBL-elevated limbic and striatal DA synthesis rate (dopamine autoreceptors): completely reversed

SMILES: C[C@H](N)Cc1ccccc1 [d-amphetamine, reference compound]
- activity of habituated rats, d-amphetamine alone [7]: 871±68 % of NaCl controls

SMILES: O=C(CCCN1CCC(O)(c2ccc(Cl)cc2)CC1)c1ccc(F)cc1 [haloperidol]
- effect on S-(-)-34-induced hypermotility [6]: blocked

SMILES: CCN1CCC[C@H]1CNC(=O)c1c(O)c(Cl)cc(Cl)c1OC [raclopride]
- effect on S-(-)-34-induced hypermotility [6]: blocked

SMILES: COC(=O)[C@H]1[C@H]2C[C@@H]3c4[nH]c5cc(OC)ccc5c4CCN3C[C@H]2C[C@@H](OC(=O)c2cc(OC)c(OC)c(OC)c2)[C@@H]1OC [reserpine]
- effect on S-(-)-34-induced hypermotility [6]: blocked
- effect on locomotor stimulation produced by S-(-)-34 ([6]; reserpine 5 mg/kg, 18 h before, S-(-)-34 50 μmol/kg, sc): completely prevented the locomotor stimulation
